The conditions of data set [1]: reference (33); cited from earlier work.
Data set [2] concerns S. aureus and S. epidermidis strains. Kind of data set: MIC by microdilution in TSB, staphylococcal strains. Type of data set: cell-based, Staphylococcus epidermidis. The settings on record: Staphylococcus aureus. On the procedure: Minimal inhibitory concentration testing of NTZ was done in sterile round bottom 96 well microtiter polystyrene plates (Corning Inc., Corning, N.Y.) by microdilution. Tizoxanide TIZ (deacetylated form of NTZ), denitro-NTZ (TIZ without 5-nitro group) and amoxanide AMIX (TIZ-ethylamine) were also tested. Bacteria were grown overnight and suspended in fresh TSB to an OD600 of 0.01 and 100 μl were dispensed into wells with the first well containing 200 μA NTZ and other antibiotics (DMSO control) were added to well one and serially diluted from 32 μg/ml. All compounds were tested in triplicate and plates were read visually or with a plate reader (Molecular Devices) at 8, 12 and at 24 h. MIC was determined as the first well in which no visible bacterial growth was noted relative to controls. Drug effects on aerobic growth were determined in 125 ml flasks containing 25 ml of TSB medium and following inoculation (detailed above), flasks were on a gyrorotary shaker (200 rpm) at 37° C. Final concentrations of NTZ were 0, 10 and 25 μg/ml and samples were removed at hourly intervals and absorbance determined at 600 nm.

Data set [3] in a line: Zn2+ chelation, spectrophotometric and 1H NMR. Type of data set: physicochemical. The settings on record: 1H NMR in DMSO-d6, ratios 1:1, 1:2, 2:1, up to 72 h. On the procedure:
To test direct binding of Zn^2+ by NTZ in solution, we tested a range of concentrations of both NTZ and TIZ and scanned the solutions spectrophotometrically using an OLIS Cary-14 (OLIS Instruments Co., Bogart Ga.). Absolute spectra were recorded over a UV/Vis range from 220 nm to 700 nm. Spectral shifts in the 418 nm range would be attributable to changes in resonance within the thiazole ring that would result if Zn^2+ were coordinated by NTZ (9).
Chelation experiments were also performed utilizing NTZ and TIZ in DMSO-d6 (0.5 mL) with ZnCl2 using a 300 MHz Varian MercuryPlus spectrometer. Specifically, three ratios of NTZ to Zn^2+ were investigated (1:1, 1:2, 2:1) where NTZ was held constant (4 mg, 13 μmoles) while varying ZnCl2 (1.8 mg, 13 μmoles or 3.5 mg, 26 μmoles) or NTZ (8 mg, 26 μmoles) with ZnCl2 (1.8 mg, 13 μmoles). Three ratios of TIZ to Zn^2+ were also investigated (1:1, 1:2, 2:1) where TIZ was held constant (4 mg, 15 μmoles) while varying ZnCl2 (2.1 mg, 15 μmoles or 4.1 mg, 30 μmoles) or TIZ (8 mg, 30 μmoles) with ZnCl2 (2.1 mg, 15 μmoles). ^1H NMR spectra were then obtained after mixing for 5 min, 24 h, 48 h, and 72 h at room temperature. Any chelation event would be evidenced by shifting or broadening of the thiazole and benzene protons as well as loss of the amide proton.

The subject of data set [4] is S. epidermidis strain 9142. Kind of data set: Biofilm determination, crystal violet, S. epidermidis. Type of data set: cell-based, Staphylococcus epidermidis. As to the method:
Staphylococcal strains were cultured overnight in TSB at 37° C. with shaking, diluted in fresh medium to an OD600 of 0.01 and 200 W was dispensed into sterile flat bottom polystyrene 96 well microtiter plates (Costar 3596, Corning Inc.). […] Each compound and dilution was tested in triplicate. The plates were incubated overnight at 37° C. in a humidified incubator, without shaking and both growth and biofilm accumulation were determined at 16 h.
Following recording of turbidities, the culture medium was aspirated and the wells were washed three times with distilled water, blotted on paper towels, and fixed with 75% ethanol for 10 minutes.
To visualize biofilm material, 0.5% crystal violet was added to each well and after 5 minutes was removed and the wells washed three times with distilled water. Plates were read using a microplate reader at a wavelength of 570 nm. The dye was then extracted by adding 200 W of 95% ethanol, and the absorbance was read again at 570 nm. All assays were performed in triplicate and the mean and standard deviation determined. Generally, the ethanol-solubilized crystal violet was more reliable and these determinations are reported throughout.

The test system of data set [5] is E. histolytica. Kind of data set: Amoebic dysentery mouse infection model. Type of data set: in vivo. The settings on record: drugs given orally or parenterally in advance.
Another data set deals with C. jejuni. Kind of data set: MIC testing by broth dilution, C. jejuni. The class given is cell-based, Campylobacter jejuni. The method in brief:
(§1)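 Compounds were diluted serially from 32 μg/ml to 0.06 in medium holding a standard inoculum, then visually scored at 24 h, and the lowest well without growth was recorded. Media were LB for E. coli, Trypticase Soy for S. epidermidis and Brain Heart Infusion for C. jejuni. C. difficile zones were measured anaerobically relative to NTZ.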

The next data set has as its system S. epidermidis. Kind of data set: MIC testing by broth dilution, S. epidermidis plank. The class given is cell-based, Staphylococcus epidermidis. The method in brief: as §1
Another data set can be described thus: Solubility in water. The class given is physicochemical.
In data set [6] the test system is C. difficile. Kind of data set: MIC by agar dilution, C. difficile. Type of data set: cell-based, Clostridium difficile. On the procedure: A standard broth dilution protocol was used in 96 well microplates containing a standard dilution of the microorganism to be tested in 100 microliters of the appropriate medium. Appropriate medium: E. coli, LB medium; Staphylococcus strains, Trypticase Soy; and for H. pylori and C. jejuni, Brain Heart Infusion. The compounds to be tested were set at 32 μg/ml in 200 microliters in well one and then serially diluted to provide a range from 32 to 0.06. The wells were scored visually at 24 h. The well where there was no growth was recorded as the MIC. […]
Representative compounds of the invention were tested in a series of assays against a series of organisms as described above. […] The organisms tested include, C. difficile, H. pylori, C. jejuni, MRSA, S. epidermidis, and E. coli. S. epidermidis and E. coli were tested in the plank and biofilm assay. A disk diffusion assay was also used for C. difficile. Direct PFOR enzyme assays were also performed. All analogues and derivatives were not tested on every organism in every type of assay (the “-” in each table means that it was not tested).

The subject of another data set is S. epidermidis biofilm. Kind of data set: S. epidermidis biofilm assay (activity tables). Type of data set: cell-based, Staphylococcus epidermidis. In outline: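 Overnight TSB cultures diluted to OD600 0.01 and grown static with compound (triplicate) at 37° C for 16 h; turbidity recorded for growth. Biofilm: washed wells ethanol-fixed, stained with 0.5% crystal violet, A570 read before and after 95% ethanol extraction; mean ± SD.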

Data set [7] concerns S. epidermidis strain 9142. Kind of data set: Effect of zinc on the action of NTZ (biofilm and MIC). The following applies: zinc 20 μM, read at 8 h. Type of data set: cell-based, Staphylococcus epidermidis. On the procedure:
[…] As a control, ZnCl2 was added to untreated bacteria. Additional controls included testing of 10 μM CaCl2 and MgCl2 in the same format. The inhibitory effect of EDTA on biofilm production and its reversibility by Zn^2+ was also assessed as described for NTZ.

Another data set deals with E. coli biofilm. Kind of data set: E. coli biofilm assay (activity tables). The class given is cell-based, Escherichia coli. In outline: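 E. coli strain 042 inoculated 1:100 with NTZ-containing medium and grown statically at 37 °C for 24 h. Growth measured by turbidity or plate counts (cfu/ml); biofilm stained with 0.5% crystal violet and read at 570 nm; triplicate, mean ± SD.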

In data set [8] the test system is C. difficile. Kind of data set: Disk diffusion (Kirby Bower), C. difficile. The class given is cell-based, Clostridium difficile. The following applies: for Disk Diffusion (%) C. difficile: zone of inhibited growth as relative ratio to the zone for NTZ. The method in brief:
as §1

In a further data set the test system is MRSA. Kind of data set: MIC testing by broth dilution, MRSA. Type of data set: cell-based, Staphylococcus aureus. The method in brief:
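Values are broth-dilution MICs, defined as the well showing no growth on visual reading after 24 h; the tested range was 32 to 0.06 μg/ml, in organism-specific media (LB, Trypticase Soy, Brain Heart Infusion). The C. difficile entries come instead from anaerobic Kirby-Bauer disk zones, normalised to NTZ.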

A further data set has as its system E. coli. Kind of data set: MIC testing by broth dilution, E. coli plank. The class given is cell-based, Escherichia coli. In outline: as §1
The next data set deals with H. pylori. Kind of data set: MIC testing by broth dilution, H. pylori. Type of data set: cell-based, Helicobacter pylori. The method in brief:
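Helicobacter pylori was tested using a standard broth dilution method in 96 well microplates, each well holding a standard dilution of the organism in 100 microliters of Brain Heart Infusion. Compounds started at 32 μg/ml in 200 microliters in the first well and were serially diluted from 32 to 0.06. Wells were read visually at 24 h, and the MIC was the well with no growth.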

Data set [9] relates to E. histolytica. Kind of data set: E. histolytica cell counts.
For data set [10], the system named is PFOR (pyruvate ferredoxin oxidoreductase). Kind of data set: Direct PFOR enzyme assay. The class given is biochemical.

Values after ≈ are worked out from the molar mass of the structure shown. Structures can show the parent of a compound that is named as a salt. Where two headings read alike, the source gives them in different places.

Results on 4 compounds are retold here after patent US8835644B2, “Broad spectrum benzothiophene-nitrothiazolide and other antimicrobials” (University of Virginia Patent Foundation, priority 2009, dated 2014).

As for `O=C(Nc1ncc([N+](=O)[O-])s1)c1ccccc1O` [TIZ], the “Bound to plasma proteins” value in data set [1] is listed as 97.5%. Moreover, the MIC in [2] (staphylococcal strains incl. MRSA S. aureus, microdilution in TSB, read-out: MIC) fell in the range of 8 to 16 µg/mL (≈ 30.2 to 60.3 µM). The “Chelation with ZnCl2” value in data set [3] is “no chelation”. For the same compound, the “Inhibition of biofilm production” value in [4] (compared with NTZ) is reported as “equivalent results”.

With `NCCOc1ccccc1C(=O)Nc1ncc([N+](=O)[O-])s1` [VPC161219, 2-(2-Aminoethoxy)-N-(5-nitrothiazol-2-yl)benzamide hydrochloride], the Prevention rates entry in the data set with E. histolytica [5] is recorded as “equivalence”. The MIC with C. jejuni (Campylobacter jejuni, 24 h, read-out: MIC (μM) C. jejuni) is 17.4 µM; in the data set on S. epidermidis (Staphylococcus epidermidis, 24 h, read-out: MIC (μM) S. epidermidis Plank) it was 92.8 µM; with C. difficile [6] (Clostridioides difficile, read-out: MIC (μM) C. difficile), 46.4 µM; with E. coli biofilm (Escherichia coli, read-out: MIC (μM) E. coli Biofilm) it was 46.4 µM; in [2] (MRSA), 16 to 32 µg/mL; in the data set with MRSA (Staphylococcus aureus, MRSA, 24 h, read-out: MIC (μM) MRSA), 92.8 µM. Further, the MIC amounted to 69.6 µM in the data set on E. coli (Escherichia coli, 24 h, read-out: MIC (μM) E. coli Plank) and 0.7 µM in the data set with H. pylori (Helicobacter pylori, 24 h, read-out: MIC (μM) H. pylori). Also, in the data set “Solubility in water” (more soluble than NTZ), the “Fold difference in water solubility versus NTZ” value stood at 15 fold. The compound also came in with a solubility in “Solubility in water” (water) of 400 µg/mL. Moreover, the “MIC (μM) S. epidermidis Biofilm” value in the data set with S. epidermidis biofilm is 46.4 µM. Moreover, in data set [7], the “Effect of Zn2+ on the growth inhibitory action (MIC)” value is on record as “no effect”. For the same compound, the “Disk Diffusion (%) C. difficile” value in the data set with C. difficile [8] was determined as 88 ± 4%. For the same compound, the “E. histolytica cell counts, compared by MIC” value in the data set on E. histolytica [9] is “superior to nitazoxanide based on MIC”. In addition, the “Fold decrease in anti-biofilm potency versus NTZ” value in [4] (S. epidermidis 9142) worked out at 2 fold. Also, the IC50 in [4] (Staphylococcus epidermidis, 9142, read-out: IC50 biofilm production) was determined as 8 µg/mL. Also, in [10], the “PFOR inhibition relative to nitazoxanide (=100)” value is on record as 114%.

In the case of `O=C(Nc1ncc([N+](=O)[O-])s1)c1sc2cc(F)ccc2c1Cl` [VPC161115], the MIC in the data set with C. jejuni (Thiophene analogues table, read-out: MIC C. jejuni) was determined as 5.6 µM (≈ 2 µg/mL); in the data set on S. epidermidis (planktonic, Thiophene analogues table, read-out: MIC S. epidermidis Plank), 5.6 µM (≈ 2 µg/mL); in the data set with C. difficile [6] (Thiophene analogues table, read-out: MIC C. difficile), 11.2 µM (≈ 4.01 µg/mL); in the data set with E. coli biofilm (biofilm, Thiophene analogues table, read-out: MIC E. coli Biofilm) it was 5.6 µM (≈ 2 µg/mL); in the data set on MRSA (Thiophene analogues table, read-out: MIC MRSA) it was 2.1 µM (≈ 0.751 µg/mL); in the data set on E. coli (planktonic, Thiophene analogues table, read-out: MIC E. coli Plank) it was 89.4 µM (≈ 32 µg/mL). Besides, the MIC in the data set with H. pylori (Thiophene analogues table, read-out: MIC H. pylori) was 1.0 µM (≈ 0.358 µg/mL). Moreover, the “MIC S. epidermidis Biofilm” value against S. epidermidis biofilm (Thiophene analogues table) worked out at 0.1 µM (≈ 0.0358 µg/mL). The “Disk Diff (%) C. difficile” value with C. difficile [8] (Nitazoxanide = 100, Thiophene analogues table) was 44%. Further, the “PFOR inhibition relative to nitazoxanide (=100)” value in data set [10] (Thiophene analogues table) is 96%.

In the case of `COc1cccc(C(=O)Nc2ncc([N+](=O)[O-])s2)c1` [VPC161193], the MIC in the data set on C. jejuni (broth dilution, Brain Heart Infusion, 24 h, read-out: MIC (μM) C. jejuni) is 7.2 µM (≈ 2.01 µg/mL); in the data set on S. epidermidis (broth dilution, Trypticase Soy, 24 h, read-out: MIC (μM) S. epidermidis Plank), 28.6 µM (≈ 7.99 µg/mL); in the data set on C. difficile [6] (agar dilution, anaerobic, Wilkins Chalgrin agar, read-out: MIC (μM) C. difficile) it was 28.6 µM (≈ 7.99 µg/mL); in the data set on E. coli biofilm (biofilm, read-out: MIC (μM) E. coli Biofilm), 114.6 µM (≈ 32 µg/mL); with MRSA (broth dilution, Trypticase Soy, 24 h, read-out: MIC (μM) MRSA), 14.3 µM (≈ 3.99 µg/mL); in the data set with E. coli (broth dilution, LB medium, 24 h, read-out: MIC (μM) E. coli Plank), 114.6 µM (≈ 32 µg/mL). Further, the MIC in the data set on H. pylori (broth dilution, Brain Heart Infusion, 24 h, read-out: MIC (μM) H. pylori) is 1.3 µM (≈ 0.363 µg/mL). The “MIC (μM) S. epidermidis Biofilm” value against S. epidermidis biofilm is 57.3 µM (≈ 16 µg/mL). Moreover, in the data set with C. difficile [8], the “Disk Diffusion (%) C. difficile” value amounted to 73 ± 1%. In addition, the “PFOR inhibition relative to nitazoxanide (=100)” value in data set [10] worked out at 82%.
